Measurements: patent publication US20070049564A1 (Wyeth, priority 2005, published 2007)
≈ marks a conversion by molar mass, not a printed value. Read-outs that look alike come from different tables or passages of the source.

How the values were obtained:
[1] = system: E. coli GC 2236; experiment: MIC, broth microdilution; conditions: Escherichia coli
[2] = system: E. coli GC 2231; experiment: MIC, broth microdilution; conditions: Escherichia coli
[3] = system: E. coli GC 2235; experiment: MIC, broth microdilution; conditions: Escherichia coli
[4] = system: E. coli GC 2232; experiment: MIC, broth microdilution; conditions: Escherichia coli
[5] = system: E. coli GC 2234; experiment: MIC, broth microdilution; conditions: Escherichia coli
[6] = system: E. coli GC 4559; experiment: MIC, broth microdilution; conditions: Escherichia coli
[7] = system: S. typhimurium GC 2172; experiment: MIC, broth microdilution; conditions: Salmonella enterica, TYPHIMURIUM
[8] = system: S. aureus GC 6466; experiment: MIC, broth microdilution; conditions: Staphylococcus aureus
[9] = system: S. aureus GC 4536; experiment: MIC, broth microdilution; conditions: Staphylococcus aureus
[10] = system: S. aureus GC 2216; experiment: MIC, broth microdilution; conditions: Staphylococcus aureus
[11] = system: E. faecalis GC 4555; experiment: MIC, broth microdilution; conditions: Enterococcus faecalis
[12] = system: E. faecalis GC 2242; experiment: MIC, broth microdilution; conditions: Enterococcus faecalis
[13] = system: E. faecium GC 4556; experiment: MIC, broth microdilution; conditions: Enterococcus faecium
[14] = system: S. pneumoniae* GC 4465; experiment: MIC, broth microdilution; conditions: Streptococcus pneumoniae
[15] = system: S. pneumoniae+ GC 4465; experiment: MIC, broth microdilution; conditions: Streptococcus pneumoniae
[16] = system: S. pyogenes GC 4563; experiment: MIC, broth microdilution; conditions: Streptococcus pyogenes
[17] = system: S. agalactiae GC 4564; experiment: MIC, broth microdilution; conditions: Streptococcus agalactiae
[18] = system: E. coli; experiment: Range of MIC for E. coli strains; conditions: Escherichia coli
[19] = system: Staph.; experiment: Range of MIC for Staph. strains, including MRSA; conditions: Staphylococcus aureus
[20] = system: Staph. aureus Smith; experiment: In vivo activity (oral, iv; ED50) against Staph. aureus Smith in mice
[21] = read-out: MINIMAL INHIBITORY CONCENTRATION MIC, pre-incubated in Human Serum
[22] = read-out: MINIMAL INHIBITORY CONCENTRATION MIC, pre-incubated in Mouse Serum
[23] = read-out: MINIMAL INHIBITORY CONCENTRATION MIC, pre-incubated in Water

MIC ([1]; GC2236, read-out: MINIMAL INHIBITORY CONCENTRATION MIC, pre-incubated in Human Serum): > 64 µg/mL
MIC ([1]; GC2236, read-out: MINIMAL INHIBITORY CONCENTRATION MIC, pre-incubated in Mouse Serum): 2 µg/mL (≈ 2.64 µM)
MIC ([1]; GC2236, read-out: MINIMAL INHIBITORY CONCENTRATION MIC, pre-incubated in Water): > 64 µg/mL
MIC ([2]; GC2231, read-out: MINIMAL INHIBITORY CONCENTRATION MIC, pre-incubated in Human Serum): > 64 µg/mL
MIC ([2]; GC2231, read-out: MINIMAL INHIBITORY CONCENTRATION MIC, pre-incubated in Mouse Serum): 2 µg/mL (≈ 2.64 µM)
MIC ([2]; GC2231, read-out: MINIMAL INHIBITORY CONCENTRATION MIC, pre-incubated in Water): > 64 µg/mL
MIC ([3]; GC2235, read-out: MINIMAL INHIBITORY CONCENTRATION MIC, pre-incubated in Human Serum): > 64 µg/mL
MIC ([3]; GC2235, read-out: MINIMAL INHIBITORY CONCENTRATION MIC, pre-incubated in Mouse Serum): 2 µg/mL (≈ 2.64 µM)
MIC ([3]; GC2235, read-out: MINIMAL INHIBITORY CONCENTRATION MIC, pre-incubated in Water): > 64 µg/mL
MIC ([4]; GC2232, read-out: MINIMAL INHIBITORY CONCENTRATION MIC, pre-incubated in Human Serum): > 64 µg/mL
MIC ([4]; GC2232, read-out: MINIMAL INHIBITORY CONCENTRATION MIC, pre-incubated in Mouse Serum): 2 µg/mL (≈ 2.64 µM)
MIC ([4]; GC2232, read-out: MINIMAL INHIBITORY CONCENTRATION MIC, pre-incubated in Water): > 64 µg/mL
MIC ([5]; GC2234, read-out: MINIMAL INHIBITORY CONCENTRATION MIC, pre-incubated in Human Serum): > 64 µg/mL
MIC ([5]; GC2234, read-out: MINIMAL INHIBITORY CONCENTRATION MIC, pre-incubated in Mouse Serum): 2 µg/mL (≈ 2.64 µM)
MIC ([5]; GC2234, read-out: MINIMAL INHIBITORY CONCENTRATION MIC, pre-incubated in Water): > 64 µg/mL
MIC ([6]; GC4559, read-out: MINIMAL INHIBITORY CONCENTRATION MIC, pre-incubated in Human Serum): > 64 µg/mL
MIC ([6]; GC4559, read-out: MINIMAL INHIBITORY CONCENTRATION MIC, pre-incubated in Mouse Serum): 4 µg/mL (≈ 5.28 µM)
MIC ([6]; GC4559, read-out: MINIMAL INHIBITORY CONCENTRATION MIC, pre-incubated in Water): > 64 µg/mL
MIC [7, 21]: > 64 µg/mL
MIC [7, 22]: 8 µg/mL (≈ 10.6 µM)
MIC [7, 23]: > 64 µg/mL
MIC ([8]; GC6466, read-out: MINIMAL INHIBITORY CONCENTRATION MIC, pre-incubated in Human Serum): 2 µg/mL (≈ 2.64 µM)
MIC ([8]; GC6466, read-out: MINIMAL INHIBITORY CONCENTRATION MIC, pre-incubated in Mouse Serum): 2 µg/mL (≈ 2.64 µM)
MIC ([8]; GC6466, read-out: MINIMAL INHIBITORY CONCENTRATION MIC, pre-incubated in Water): 2 µg/mL (≈ 2.64 µM)
MIC ([9]; GC4536, read-out: MINIMAL INHIBITORY CONCENTRATION MIC, pre-incubated in Human Serum): 2 µg/mL (≈ 2.64 µM)
MIC ([9]; GC4536, read-out: MINIMAL INHIBITORY CONCENTRATION MIC, pre-incubated in Mouse Serum): 2 µg/mL (≈ 2.64 µM)
MIC ([9]; GC4536, read-out: MINIMAL INHIBITORY CONCENTRATION MIC, pre-incubated in Water): 4 µg/mL (≈ 5.28 µM)
MIC ([10]; GC2216, read-out: MINIMAL INHIBITORY CONCENTRATION MIC, pre-incubated in Human Serum): 2 µg/mL (≈ 2.64 µM)
MIC ([10]; GC2216, read-out: MINIMAL INHIBITORY CONCENTRATION MIC, pre-incubated in Mouse Serum): 2 µg/mL (≈ 2.64 µM)
MIC ([10]; GC2216, read-out: MINIMAL INHIBITORY CONCENTRATION MIC, pre-incubated in Water): 2 µg/mL (≈ 2.64 µM)
MIC ([11]; GC4555, read-out: MINIMAL INHIBITORY CONCENTRATION MIC, pre-incubated in Human Serum): 4 µg/mL (≈ 5.28 µM)
MIC ([11]; GC4555, read-out: MINIMAL INHIBITORY CONCENTRATION MIC, pre-incubated in Mouse Serum): 2 µg/mL (≈ 2.64 µM)
MIC ([11]; GC4555, read-out: MINIMAL INHIBITORY CONCENTRATION MIC, pre-incubated in Water): 4 µg/mL (≈ 5.28 µM)
MIC ([12]; GC2242, read-out: MINIMAL INHIBITORY CONCENTRATION MIC, pre-incubated in Human Serum): 4 µg/mL (≈ 5.28 µM)
MIC ([12]; GC2242, read-out: MINIMAL INHIBITORY CONCENTRATION MIC, pre-incubated in Mouse Serum): 2 µg/mL (≈ 2.64 µM)
MIC ([12]; GC2242, read-out: MINIMAL INHIBITORY CONCENTRATION MIC, pre-incubated in Water): 4 µg/mL (≈ 5.28 µM)
MIC ([13]; GC4556, read-out: MINIMAL INHIBITORY CONCENTRATION MIC, pre-incubated in Human Serum): 4 µg/mL (≈ 5.28 µM)
MIC ([13]; GC4556, read-out: MINIMAL INHIBITORY CONCENTRATION MIC, pre-incubated in Mouse Serum): 2 µg/mL (≈ 2.64 µM)
MIC ([13]; GC4556, read-out: MINIMAL INHIBITORY CONCENTRATION MIC, pre-incubated in Water): 4 µg/mL (≈ 5.28 µM)
MIC [14, 21]: 2 µg/mL (≈ 2.64 µM)
MIC [14, 22]: 1 µg/mL (≈ 1.32 µM)
MIC [14, 23]: 2 µg/mL (≈ 2.64 µM)
MIC [15, 21]: 4 µg/mL (≈ 5.28 µM)
MIC [15, 22]: 4 µg/mL (≈ 5.28 µM)
MIC [15, 23]: 4 µg/mL (≈ 5.28 µM)
MIC ([16]; GC4563, read-out: MINIMAL INHIBITORY CONCENTRATION MIC, pre-incubated in Human Serum): 4 µg/mL (≈ 5.28 µM)
MIC ([16]; GC4563, read-out: MINIMAL INHIBITORY CONCENTRATION MIC, pre-incubated in Mouse Serum): 1 µg/mL (≈ 1.32 µM)
MIC ([16]; GC4563, read-out: MINIMAL INHIBITORY CONCENTRATION MIC, pre-incubated in Water): 2 µg/mL (≈ 2.64 µM)
MIC ([17]; GC4564, read-out: MINIMAL INHIBITORY CONCENTRATION MIC, pre-incubated in Human Serum): 4 µg/mL (≈ 5.28 µM)
MIC ([17]; GC4564, read-out: MINIMAL INHIBITORY CONCENTRATION MIC, pre-incubated in Mouse Serum): 1 µg/mL (≈ 1.32 µM)
MIC ([17]; GC4564, read-out: MINIMAL INHIBITORY CONCENTRATION MIC, pre-incubated in Water): 4 µg/mL (≈ 5.28 µM)
MIC ([18]; 20 h, read-out: Range of MIC, E. coli (Mouse Serum)): 2 to 8 µg/mL (≈ 2.64 to 10.6 µM)
MIC ([18]; read-out: Minimum inhibitory concentration (MIC), E. coli (Human Serum)): > 64 µg/mL
MIC ([18]; read-out: Minimum inhibitory concentration (MIC), E. coli (water)): > 64 µg/mL
MIC ([18]; read-out: Range of MIC, E. coli (Water)): > 64 µg/mL
MIC ([19]; MRSA, read-out: Range of MIC, Staph (Mouse Serum)): 2 µg/mL (≈ 2.64 µM)
MIC ([19]; MRSA, read-out: Range of MIC, Staph (Water)): 2 to 4 µg/mL (≈ 2.64 to 5.28 µM)
MIC ([19]; read-out: Minimum inhibitory concentration (MIC), Staph (Human Serum)): 2 to 4 µg/mL (≈ 2.64 to 5.28 µM)
MIC ([19]; read-out: Minimum inhibitory concentration (MIC), Staph (Water)): 2 to 4 µg/mL (≈ 2.64 to 5.28 µM)
SMILES: CCC(C)(C)C(=O)OCOC(=O)N(CC(=O)Nc1cc(N(C)C)c2c(c1O)C(=O)C1=C(O)[C@]3(O)C(=O)C(C(N)=O)=C(O)[C@@H](N(C)C)[C@@H]3C[C@@H]1C2)C(C)(C)C [Example 44, ({[(2-{[(5aR,6aS,7S,10aS)-9-(aminocarbonyl)-4,7-bis(dimethylamino)-1,8,10a,11-tetrahydroxy-10,12-dioxo-5,5a,6,6a,7,10,10a,12-octahydrotetracen-2-yl]amino}-2-oxoethyl)(tert-butyl)amino]carbonyl}oxy)methyl 2,2-dimethylbutanoate]
ED50 ([20]; Staphylococcus aureus, in Mus musculus, iv, read-out: ED50 SIV (Staph aureus Smith)): 0.75 mg/kg
ED50 ([20]; Staphylococcus aureus, in Mus musculus, po, read-out: ED50 SOD (Staph aureus Smith)): 4 mg/kg
ED50 ([20]; Staphylococcus aureus, in Mus musculus, po, read-out: ED50 Staph Smith SOD): 4 mg/kg
ED50 ([20]; iv, read-out: ED50 Staph Smith SIV): 0.75 mg/kg
